From patent US20140024030A1, “PRESELECTION OF SUBJECTS FOR THERAPEUTIC TREATMENT WITH OXYGEN SENSITIVE AGENTS BASED IN HYPOXIC STATUS” (priority 2010, published 2014)

Assays:
[1] = system: HCT116 human colon carcinoma xenograft; assay: HCT116 xenograft model in nude mice (hypoxic tumor); format: in vivo; details: for efficacy at slowing tumor growth in HCT116 (high hypoxia) versus 786O (low hypoxia) tumors: comparison of HCT116 and 786O xenografts in nude mice
Description: Human tumor cell lines HCT116 (ATCC #CRL-247; Schroy P C, et al. Cancer 76: 201-209, 1995) and 786-O (ATCC #CRL-1932; Williams R D, et al. In Vitro 12: 623-627, 1976), were obtained from the American Type Culture Collection (Manassus, Va., USA) were cultured using routine methods until a sufficient number of cells were obtained for implantation. Studies were conducted on animals between 7 and 12 weeks of age at implantation. To implant HCT116 tumor cells into nude mice, the cells were trypsinized, washed in PBS and resuspended at a concentration of 75×10^6 cells/ml in McCoy's modified medium with 50% of BD Matrigel® Basement Membrane Matrix (BD Biosciences®, Bedford, Mass., USA). To implant 786-O tumor cells into nude mice, the cells were trypsinized as above, washed in PBS and resuspended at a concentration of 75×10^6 cells/ml in RPMI 1640 medium with 50% of BD Matrigel® Basement Membrane Matrix. Using a 27 gauge needle and 1 cc syringe, 0.1 ml of the cell suspension was injected into the corpus adiposum of nude mice. […] The location permits palpation and measurement of the tumors using external calipers. Tumor volumes (V) were calculated by caliper measurement of the width (W), length (L) and thickness (T) of tumors using the following formula: V=0.5236×(L×W×T).
As above, HCT116 and 786-O cells were cultured and implanted into nude mice using the methods in the previous example. Tumor growth was measured using calipers.
Tumor volume was monitored throughout the course of the study, until up to about 40 days from the date of tumor implantation. The exact number of days of the study depended on a number of factors including, for example, the number of days from implantation for the tumors to reach the desired volume.

[2] = system: locally advanced or metastatic NSCLC; details: erlotinib 150 mg orally once daily; cited from earlier work
[3] = system: locally advanced or metastatic NSCLC; details: maintenance, erlotinib 150 mg once daily; difference not statistically significant; cited from earlier work
[4] = system: locally advanced, unresectable or metastatic pancreatic cancer; details: 100 mg cohort, arms: gemcitabine plus erlotinib vs gemcitabine alone, cited from earlier work
JAK2V617F = JAK2V617F (Homo sapiens, UniProt O60674, V617F); details: cited from earlier work
Chain of JAK2V617F (O60674 whole entry V617F): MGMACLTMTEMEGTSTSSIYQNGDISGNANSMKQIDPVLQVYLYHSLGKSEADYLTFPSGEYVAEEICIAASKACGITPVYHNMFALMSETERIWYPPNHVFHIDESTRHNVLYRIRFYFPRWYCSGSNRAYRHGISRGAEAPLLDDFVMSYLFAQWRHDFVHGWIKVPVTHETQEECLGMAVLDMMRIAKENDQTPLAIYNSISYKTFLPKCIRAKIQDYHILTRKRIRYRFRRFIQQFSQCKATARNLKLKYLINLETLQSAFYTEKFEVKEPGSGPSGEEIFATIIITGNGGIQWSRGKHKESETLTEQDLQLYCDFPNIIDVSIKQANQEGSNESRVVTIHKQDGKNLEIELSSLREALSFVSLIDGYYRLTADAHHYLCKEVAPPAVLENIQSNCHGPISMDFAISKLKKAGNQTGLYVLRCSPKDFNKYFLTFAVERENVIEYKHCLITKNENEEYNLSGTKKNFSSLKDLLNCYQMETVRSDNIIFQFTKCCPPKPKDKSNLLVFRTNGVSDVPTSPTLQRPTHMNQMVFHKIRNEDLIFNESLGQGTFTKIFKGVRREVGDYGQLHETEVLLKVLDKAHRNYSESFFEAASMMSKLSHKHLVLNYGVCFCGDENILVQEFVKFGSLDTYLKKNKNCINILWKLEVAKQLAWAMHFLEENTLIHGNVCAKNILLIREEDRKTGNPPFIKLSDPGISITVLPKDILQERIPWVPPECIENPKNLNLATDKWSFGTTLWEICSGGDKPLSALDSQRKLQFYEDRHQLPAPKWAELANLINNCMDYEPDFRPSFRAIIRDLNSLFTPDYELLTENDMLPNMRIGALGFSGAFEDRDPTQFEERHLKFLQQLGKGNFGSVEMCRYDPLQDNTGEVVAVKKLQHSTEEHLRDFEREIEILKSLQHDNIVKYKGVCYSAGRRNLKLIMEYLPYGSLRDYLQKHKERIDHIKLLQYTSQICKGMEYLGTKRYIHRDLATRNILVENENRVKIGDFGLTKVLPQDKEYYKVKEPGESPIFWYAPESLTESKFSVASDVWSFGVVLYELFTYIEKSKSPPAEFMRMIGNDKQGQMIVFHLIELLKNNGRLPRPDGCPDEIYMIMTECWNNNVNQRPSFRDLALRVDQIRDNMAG

solid tumors = details: once-weekly dosing, evaluable patients; cited from earlier work
[5] = system: advanced relapsed/refractory NSCLC; details: cited from earlier work
[6] = system: gastrointestinal stromal tumor (GIST); details: cited from earlier work
treatment-naïve RCC = details: cited from earlier work
[7] = system: GIST following progression on or intolerance to imatinib; details: 50 mg once daily Schedule 4/2; 5 of 55 patients; cited from earlier work
[8] = system: metastatic colorectal cancer; details: bevacizumab and chemotherapy vs bevacizumab and chemotherapy alone, cited from earlier work
[9] = system: EGFR-expressing, metastatic carcinoma of the colon or rectum (mCRC); details: panitumumab 6 mg/kg every two weeks plus best supportive care; cited from earlier work

Compound: C#Cc1cccc(Nc2ncnc3cc(OCCOC)c(OCCOC)cc23)c1 [erlotinib]
- efficacy at slowing tumor growth in HCT116 (high hypoxia) versus 786O (low hypoxia) tumors [1]: more effective at slowing tumor growth in tumors with high levels of hypoxia
- tumor growth rate versus control ([1]; erlotinib 1x/week P.O., p=0.0224): reduced the growth rate of the tumor as compared to control
- median response duration [2]: 34.3 weeks
- progression free survival [2]: 9.9 weeks
- survival [2]: 6.7 months
- tumor response [2]: 8.9%
- overall survival [3]: 12 weeks
- progression free survival ([4]; p=0.006): 3.8 months
- survival ([4]; p=0.028): 6.4 months
- JAK2V617F activity (JAK2V617F): potent inhibitor of JAK2V617F activity

Compound: CC(C)c1cc(-c2nnc(O)n2-c2ccc3c(ccn3C)c2)c(O)cc1O [ganetespib]
- efficacy at slowing tumor growth in HCT116 (high hypoxia) versus 786O (low hypoxia) tumors [1]: not found to work better in the tumors with a higher level of hypoxia
- disease control (solid tumors): more than half of all evaluable patients experienced disease control
- disease control rate ([5]; broad population, single agent): 54%
- patients with durable, objective responses ([5]; patients with ALK rearrangement, four of eight): 50%
- patients who received ganetespib for 16 weeks or more ([5]; patients with ALK rearrangement, seven of eight): 88%
- patients with tumor shrinkage ([5]; patients with ALK rearrangement, six of eight): 75%

Compound: CCN(CC)CCNC(=O)c1c(C)[nH]c(/C=C2\C(=O)Nc3ccc(F)cc32)c1C [sunitinib]
- efficacy at slowing tumor growth in HCT116 (high hypoxia) versus 786O (low hypoxia) tumors [1]: not found to work better in the tumors with a higher level of hypoxia
- median OS ([6]; final analysis, sunitinib arm): 72.7 weeks
- time to tumor progression (TTP) versus placebo ([6]; interim analysis, 50 mg once daily Schedule 4/2): statistically significant advantage for sunitinib over placebo in TTP
- OS HR ([6]; sunitinib vs placebo, final analysis): 0.876
- PFS versus IFN-α (treatment-naïve RCC; 50 mg sunitinib once daily Schedule 4/2): statistically significant advantage for sunitinib over IFN-α in the endpoint of PFS
- median OS (treatment-naïve RCC; final analysis, arms: sunitinib vs IFN-α): 114.6 weeks
- ORR versus IFN-α arm (treatment-naïve RCC; in vivo): higher
- PR rate [7]: 9.1%

Compound: panitumumab: recombinant, human IgG2 kappa monoclonal antibody that binds to the human EGFR
- efficacy at slowing tumor growth in HCT116 (high hypoxia) versus 786O (low hypoxia) tumors [1]: not found to work better in the tumors with a higher level of hypoxia
- median PFS ([8]; oxaliplatin stratum, arms: panitumumab): 8.8 months
- PFS hazard ratio ([8]; panitumumab, p-value=0.0024): 1.44
- PFS [9]: 96 days
